# How the values were obtained:
# Experiment in all cases: viability relative to DMSO control (fraction); higher = less drug effect (more viable cells)
# Conditions in all cases: 48 h
# [1] = compound: CC#CC(=O)N1CC[C@@H](n2c(=O)n(-c3ccc(Oc4ccccc4)cc3)c3c(N)ncnc32)C1 [ONO-4059]
# Procedure, shortened: (§1)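 Viability is given as CellTiter-Glo luminescence relative to the median of 16 inner DMSO wells. Fresh or cryopreserved primary mononuclear tumour cells from blood, bone marrow (both Ficoll-isolated) or processed lymph node were plated at 4 × 10^4 cells per well in 384-well plates against five pre-plated compound concentrations, one well each. Incubation lasted 48 h at 37 °C and 5% CO2 in RPMI-1640 with penicillin/streptomycin, L-glutamine and human serum.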
# [2] = compound: CC[C@H](NC(=O)[C@H](C)NC)C(=O)N1C[C@@H](O)C[C@H]1Cc1c(-c2[nH]c3cc(F)ccc3c2C[C@@H]2C[C@H](O)CN2C(=O)[C@H](CC)NC(=O)[C@H](C)NC)[nH]c2cc(F)ccc12 [Birinapant]
# Procedure, shortened: as §1
# [3] = compound: CN(C)C(=O)c1cc2cnc(Nc3ccc(N4CCNCC4)cn3)nc2n1C1CCCC1 [Ribociclib]
# Procedure, shortened: as §1
# [4] = compound: COC1=CC(c2cc3ccccc3[nH]2)=N/C1=C\c1[nH]c(C)cc1C [Obatoclax mesylate]
# Procedure, shortened: as §1
# [5] = compound: COc1c(Cl)cc2c([nH]c3cnccc32)c1NC(=O)c1cccnc1C [MLN-120B]
# Procedure, shortened: as §1
# [6] = compound: Cc1ccc(NC(=O)c2ccc(CN3CCN(C)CC3)cc2)cc1Nc1nccc(-c2cccnc2)n1 [Imatinib]
# Procedure, shortened: as §1
# [7] = compound: Cc1cn(-c2cc(NC(=O)c3ccc(C)c(Nc4nccc(-c5cccnc5)n4)c3)cc(C(F)(F)F)c2)cn1 [Nilotinib]
# Procedure, shortened: as §1
# [8] = compound: C#CCC(Cc1cnc2nc(N)nc(N)c2n1)c1ccc(C(=O)N[C@@H](CCC(=O)O)C(=O)O)cc1 [Pralatrexate]
# Procedure, shortened: as §1
# [9] = compound: CC(C)(C)OC(=O)Nc1ccc(-c2cc(C(=O)NCCCCCCC(=O)NO)no2)cc1
# Procedure, shortened: as §1
# [10] = compound: CCCS(=O)(=O)Nc1ccc(F)c(C(=O)c2c[nH]c3ncc(-c4ccc(Cl)cc4)cc23)c1F [Vemurafenib]
# Procedure, shortened: as §1
# [11] = compound: CCOc1cc(C(=O)N2CCC(N3CCN(C)CC3)CC2)ccc1Nc1ncc2c(n1)N(C1CCCC1)c1ccccc1C(=O)N2C [ERK5-IN-1]
# Procedure, shortened: as §1
# [12] = compound: CC[C@@H]1C(=O)N(C)c2cnc(Nc3ccc(C(=O)N[C@H]4CC[C@H](N5CCN(CC6CC6)CC5)CC4)cc3OC)nc2N1C(C)C [BI6727]
# Procedure, shortened: as §1
# [13] = compound: CC[C@]1(O)C[C@H]2CN(CCc3c([nH]c4ccccc34)[C@@](C(=O)OC)(c3cc4c(cc3OC)N(C=O)[C@H]3[C@@](O)(C(=O)OC)[C@H](OC(C)=O)[C@]5(CC)C=CCN6CC[C@]43[C@@H]65)C2)C1 [Vincristine]
# Procedure, shortened: as §1
# [14] = compound: Cc1[nH]c2ccccc2c1CCNCc1ccc(/C=C/C(=O)NO)cc1 [Panobinostat]
# Procedure, shortened: as §1
# [15] = compound: NC(=O)Nc1cc(-c2cccc(F)c2)sc1C(=O)N[C@H]1CCCNC1 [AZD7762]
# Procedure, shortened: as §1
# [16] = compound: Nc1nc(Cl)nc2c1ncn2[C@H]1C[C@H](O)[C@@H](CO)O1 [Cladribine]
# Procedure, shortened: as §1
# [17] = compound: O=C(CCCCCCC(=O)Nc1ccccc1)NO [Vorinostat]
# Procedure, shortened: as §1
# [18] = compound: O=C(NCC1(c2nc(-c3ccccc3)cs2)CCOCC1)c1cccc(-c2noc(C(F)(F)F)n2)c1 [TMP269]
# Procedure, shortened: as §1
# [19] = compound: OC[C@H]1O[C@@H](n2cnc3c2N=CNC[C@H]3O)C[C@@H]1O [Pentostatin]
# Procedure, shortened: as §1
test system,measurement,setting,value
primary AML patient cells (S007),viability,[1]; 0.0016 µM,0.967
same,viability,[1]; 0.008 µM,0.928
same,viability,[1]; 0.04 µM,0.962
same,viability,[1]; 0.2 µM,1.03
same,viability,[1]; 1 µM,0.804
same,viability,[2]; 0.0008 µM,0.866
same,viability,[2]; 0.004 µM,0.744
same,viability,[2]; 0.02 µM,0.573
same,viability,[2]; 0.1 µM,0.384
same,viability,[2]; 0.5 µM,0.321
same,viability,[3]; 0.024 µM,0.949
same,viability,[3]; 0.12 µM,0.904
same,viability,[3]; 0.6 µM,0.766
same,viability,[3]; 3 µM,0.308
same,viability,[4]; 0.024 µM,0.717
same,viability,[4]; 0.12 µM,0.684
same,viability,[4]; 0.6 µM,0.659
same,viability,[4]; 3 µM,0.254
same,viability,[4]; 15 µM,0.0248
same,viability,[5]; 0.024 µM,0.816
same,viability,[5]; 0.12 µM,0.781
same,viability,[5]; 0.6 µM,0.728
same,viability,[5]; 3 µM,0.605
same,viability,[5]; 15 µM,0.375
same,viability,[6]; 0.016 µM,1.16
same,viability,[6]; 0.08 µM,0.987
same,viability,[6]; 0.4 µM,1.08
same,viability,[6]; 2 µM,0.765
same,viability,[6]; 10 µM,0.319
same,viability,[7]; 0.016 µM,1.19
same,viability,[7]; 0.08 µM,1.23
same,viability,[7]; 0.4 µM,1.24
same,viability,[7]; 2 µM,1.04
same,viability,[7]; 10 µM,1.31
primary T-NHL patient cells (S058),viability,[8]; 0.024 µM,1.15
same,viability,[8]; 0.12 µM,0.861
same,viability,[8]; 0.6 µM,0.833
same,viability,[8]; 3 µM,0.902
same,viability,[8]; 15 µM,0.833
same,viability,[1]; 0.0016 µM,1.06
same,viability,[1]; 0.008 µM,1.25
same,viability,[1]; 0.04 µM,1.03
same,viability,[1]; 0.2 µM,1.16
same,viability,[1]; 1 µM,1.07
same,viability,[9]; 0.024 µM,0.982
same,viability,[9]; 0.12 µM,0.854
same,viability,[9]; 0.6 µM,0.611
same,viability,[9]; 3 µM,0.355
same,viability,[9]; 15 µM,0.258
same,viability,[10]; 0.024 µM,0.878
same,viability,[10]; 0.12 µM,0.957
same,viability,[10]; 0.6 µM,0.911
same,viability,[10]; 3 µM,0.982
same,viability,[10]; 15 µM,0.96
same,viability,[11]; 0.024 µM,1.12
same,viability,[11]; 0.12 µM,1.15
same,viability,[11]; 0.6 µM,0.851
same,viability,[11]; 3 µM,0.59
same,viability,[11]; 15 µM,0.403
same,viability,[12]; 0.024 µM,0.939
same,viability,[12]; 0.12 µM,0.885
same,viability,[12]; 0.6 µM,0.757
same,viability,[12]; 3 µM,0.506
same,viability,[12]; 15 µM,0.3
same,viability,[13]; 0.016 µM,0.646
same,viability,[13]; 0.08 µM,0.417
same,viability,[13]; 0.4 µM,0.364
same,viability,[13]; 2 µM,0.302
same,viability,[13]; 10 µM,0.246
same,viability,[3]; 0.024 µM,1.05
same,viability,[3]; 0.12 µM,1.14
same,viability,[3]; 0.6 µM,1.07
same,viability,[3]; 3 µM,1.01
same,viability,[3]; 15 µM,1.06
same,viability,[4]; 0.024 µM,0.985
same,viability,[4]; 0.12 µM,0.916
same,viability,[4]; 0.6 µM,0.783
same,viability,[4]; 3 µM,0.533
same,viability,[4]; 15 µM,0.227
same,viability,[5]; 0.024 µM,0.984
same,viability,[5]; 0.12 µM,1.15
same,viability,[5]; 0.6 µM,1.05
same,viability,[5]; 3 µM,1.16
same,viability,[5]; 15 µM,0.908
same,viability,[14]; 0.00064 µM,1.24
same,viability,[14]; 0.0032 µM,0.886
same,viability,[14]; 0.016 µM,0.292
same,viability,[14]; 0.08 µM,0.302
same,viability,[14]; 0.4 µM,0.243
same,viability,[15]; 0.024 µM,1.05
same,viability,[15]; 0.12 µM,1.16
same,viability,[15]; 0.6 µM,0.936
same,viability,[15]; 3 µM,1.02
same,viability,[15]; 15 µM,0.719
same,viability,[16]; 0.024 µM,0.857
same,viability,[16]; 0.12 µM,0.441
same,viability,[16]; 0.6 µM,0.147
same,viability,[16]; 3 µM,0.112
same,viability,[16]; 15 µM,0.0704
same,viability,[17]; 0.016 µM,1.16
same,viability,[17]; 0.08 µM,0.894
same,viability,[17]; 0.4 µM,0.789
same,viability,[17]; 2 µM,0.381
same,viability,[17]; 10 µM,0.274
same,viability,[18]; 0.024 µM,1.05
same,viability,[18]; 0.12 µM,0.994
same,viability,[18]; 0.6 µM,1.01
same,viability,[18]; 3 µM,0.892
same,viability,[18]; 15 µM,0.836
same,viability,[19]; 0.03 µM,1.1
same,viability,[19]; 0.15 µM,1.06
same,viability,[19]; 0.75 µM,0.988
same,viability,[19]; 3.75 µM,0.816
same,viability,[19]; 18.76 µM,0.858

# — the supplement of paper PMC10733146
